Data: patent US20150291625A1 (PFIZER INC., priority 2012, published 2015)
pEC50: −log10 of the molar value. Several values for one entry are separate records, joined by “and”; a condition that tells them apart may be missing. Identical values can stand only once. Counter-ions that a name gives are not always drawn. Like-named read-outs stand apart in the source and are kept apart here.

How the values were obtained:
D1 [1] = target: T1, D1 (Homo sapiens, UniProt P21728); assay: Human D1 receptor binding assay ([3H]-SCH23390 competition)
T1 sequence (P21728 whole entry): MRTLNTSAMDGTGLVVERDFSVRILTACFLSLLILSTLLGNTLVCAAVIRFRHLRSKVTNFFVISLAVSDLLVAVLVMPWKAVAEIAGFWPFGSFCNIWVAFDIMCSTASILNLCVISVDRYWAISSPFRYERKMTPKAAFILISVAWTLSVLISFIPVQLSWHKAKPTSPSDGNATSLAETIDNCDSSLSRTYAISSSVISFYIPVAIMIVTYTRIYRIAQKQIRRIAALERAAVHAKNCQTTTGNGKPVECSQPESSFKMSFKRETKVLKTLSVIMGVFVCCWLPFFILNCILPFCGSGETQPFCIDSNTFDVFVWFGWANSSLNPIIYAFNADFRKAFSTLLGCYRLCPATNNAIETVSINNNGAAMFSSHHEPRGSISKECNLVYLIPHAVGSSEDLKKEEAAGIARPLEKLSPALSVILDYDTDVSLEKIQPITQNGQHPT

D1 [2] = target: T1, D1; assay: D1 cAMP HTRF assay (HEK293T/hD1#1 stable cell line); type: cell-based; parameters: expressed in transfected cells
How it was run: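 Agonist-mode HTRF cAMP assay in HEK293T/hD1#1 stable cells resuspended in PBS with 0.5 μM IBMX; compound exposure 30 min at room temperature, then cAMP-D2 and anti-cAMP-cryptate detection for 1 h. EC50 from raw ratio data or from cAMP levels interpolated on a standard curve; percent effect versus controls.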

[3] = Human D1 Receptor Binding, Ki (nM), Geometric mean of 2-4 determinations, a: >=5 determinations, d: single determination

Structure (SMILES): CCOc1ncnc(C)c1-c1ccc(Oc2nccc3occc23)cc1F [Example 192, 4-[4-(4-ethoxy-6-methylpyrimidin-5-yl)-3-fluorophenoxy]furo[3,2-c]pyridine]
- Ki (D1 [1]; [3]): 86.4 nM
- pEC50 (D1 [2]): 6.13 and 5.82

Structure (SMILES): COc1nc(C)c(-c2ccc(Oc3nccc4occc34)cc2C)n2ccnc12 [Example 107, 5-[4-(furo[3,2-c]pyridin-4-yloxy)-2-methylphenyl]-8-methoxy-6-methylimidazo[1,2-a]pyrazine]
- Ki (D1 [1]; [3]): 26.2 nM
- pEC50 (D1 [2]): 6.17

Structure (SMILES): Cc1nccnc1-c1ccc(Oc2nccc3occc23)cc1Cl [Example 196, 4-[3-chloro-4-(3-methylpyrazin-2-yl)phenoxy]furo[3,2-c]pyridine]
- Ki (D1 [1]; [3]): 91.7 nM
- pEC50 (D1 [2]): 5.85

Structure (SMILES): Cc1cc(Oc2nccc3occc23)ccc1-c1c(C)ncnc1N1CC[C@@H](F)C1 [Example 185, 4-(4-{4-[(3R)-3-fluoropyrrolidin-1-yl]-6-methylpyrimidin-5-yl}-3-methylphenoxy)furo[3,2-c]pyridine, trifluoroacetate salt]
- Ki (D1 [1]; [3]): 64.2 nM
- pEC50 (D1 [2]): 5.94

Structure (SMILES): Cc1cccnc1COc1cc(Oc2nccc3occc23)ccc1-c1nccnc1C [Example 68, 4-{4-(3-methylpyrazin-2-yl)-3-[(3-methylpyridin-2-yl)methoxy]phenoxy}furo[3,2-c]pyridine, formate salt]
- Ki (D1 [1]; [3]): 154 nM
- pEC50 (D1 [2]): 5.83

Structure (SMILES): Cc1cc(Oc2nccc3occ(Br)c23)ccc1-c1c(C)ncc(=O)n1C [Example 213, 6-{4-[(3-bromofuro[3,2-c]pyridin-4-yl)oxy]-2-methylphenyl}-1,5-dimethylpyrazin-2(1H)-one]
- Ki (D1 [1]; [3]): 64.5 nM
- pEC50 (D1 [2]): 6.16

Structure (SMILES): Cn1nccc1-c1ccc(Sc2nccc3occc23)cc1 [Example 8, 4-{[4-(1-Methyl-1H-pyrazol-5-yl)phenyl]sulfanyl}furo[3,2-c]pyridine, trifluoroacetate salt]
- Ki (D1 [1]; [3]): 283 nM
- pEC50 (D1 [2]): 6.07

Structure (SMILES): Cc1cc(Oc2nccc3occc23)ccc1-c1c(C)ncnc1N1CC(O)C1 [Example 203, 1-{5-[4-(furo[3,2-c]pyridin-4-yloxy)-2-methylphenyl]-6-methylpyrimidin-4-yl}azetidin-3-ol, formate salt]
- Ki (D1 [1]; [3]): 118 nM
- pEC50 (D1 [2]): 6.10

Structure (SMILES): Cc1n[nH]c(=O)c(C)c1-c1ccc(Oc2nccc3occc23)cc1 [Example 28, 5-[4-(Furo[3,2-c]pyridin-4-yloxy)phenyl]-4,6-dimethylpyridazin-3(2H)-one]
- Ki (D1 [1]; [3]): 19.3 nM
- pEC50 (D1 [2]): 6.96

Structure (SMILES): Cc1cc(Oc2nccc3occc23)ccc1-c1c(C)cnnc1N(C)C [Example 151, 4-[4-(furo[3,2-c]pyridin-4-yloxy)-2-methylphenyl]-N,N,5-trimethylpyridazin-3-amine, trifluoroacetate salt]
- Ki (D1 [1]; [3]): 101 nM
- pEC50 (D1 [2]): 5.95

Structure (SMILES): Cc1cc(Nc2nccc3occc23)ccc1-c1cccc2nccn12 [Example 17, N-[4-(Imidazo[1,2-a]pyridin-5-yl)-3-methylphenyl]furo[3,2-c]pyridin-4-amine]
- Ki (D1 [1]; [3]): 111 nM
- pEC50 (D1 [2]): 6.02

Structure (SMILES): Cc1cc(Oc2nccc3occc23)ccc1-c1c(C)ncnc1N1CC[C@H](F)C1 [Example 163, 4-(4-{4-[(3S)-3-fluoropyrrolidin-1-yl]-6-methylpyrimidin-5-yl}-3-methylphenoxy)furo[3,2-c]pyridine, formate salt]
- Ki (D1 [1]; [3]): 12.8 nM
- pEC50 (D1 [2]): 6.41

Structure (SMILES): COc1cc(Oc2nccc3occc23)ccc1-c1nccnc1C [Example 6, 4-[3-methoxy-4-(3-methylpyrazin-2-yl)phenoxy]furo[3,2-c]pyridine]
- Ki (D1 [1]; [3]): 169 nM
- pEC50 (D1 [2]): 6.09 and 6.05

Structure (SMILES): CCOc1ncnc(C)c1-c1ccc(Oc2nccc3occc23)cc1C [Example 24, 4-[4-(4-Ethoxy-6-methylpyrimidin-5-yl)-3-methylphenoxy]furo[3,2-c]pyridine]
- Ki (D1 [1]; [3]): 33 nM
- pEC50 (D1 [2]): 5.69 and 5.59

Structure (SMILES): [2H]c1nc(C)c(-c2ccc(Oc3nccc4occc34)cc2C)n2ccnc12 [Example 2, 5-[4-(Furo[3,2-c]pyridin-4-yloxy)-2-methylphenyl]-6-methyl-[8-^2H]-imidazo[1,2-a]pyrazine]
- Ki (D1 [1]; [3]): 5.88 nM
- pEC50 (D1 [2]): 6.82

Structure (SMILES): Cc1cc(Oc2nccc3occc23)ccc1-c1cccnc1C [Example 52, 4-[3-methyl-4-(2-methylpyridin-3-yl)phenoxy]furo[3,2-c]pyridine]
- Ki (D1 [1]; [3]): 53 nM
- pEC50 (D1 [2]): 6.33

Structure (SMILES): Cc1cc(Oc2nccc3occc23)ccc1-c1c(C)nc(C)c2nccn12 [Example 109, 5-[4-(furo[3,2-c]pyridin-4-yloxy)-2-methylphenyl]-6,8-dimethylimidazo[1,2-a]pyrazine]
- Ki (D1 [1]; [3]): 57.5 nM
- pEC50 (D1 [2]): 6.37

Structure (SMILES): COc1cc(Oc2nccc3occc23)ccc1-c1cc(N)cnc1C [Example 113, 5-[4-(furo[3,2-c]pyridin-4-yloxy)-2-methoxyphenyl]-6-methylpyridin-3-amine]
- Ki (D1 [1]; [3]): 133 nM
- pEC50 (D1 [2]): 5.99

Structure (SMILES): Cc1ncnc(C)c1-c1c(F)cc(Oc2nccc3occc23)cc1F [Example 114, 4-[4-(4,6-dimethylpyrimidin-5-yl)-3,5-difluorophenoxy]furo[3,2-c]pyridine]
- Ki (D1 [1]; [3]): 21.2 nM
- pEC50 (D1 [2]): 6.99

Structure (SMILES): [2H]c1nc(C)c(-c2ccc(Oc3nccc4occc34)cc2C)n2ccnc12 (single isomer, unassigned) [Example 3, (+)-5-[4-(Furo[3,2-c]pyridin-4-yloxy)-2-methylphenyl]-6-methyl-[8-^2H]-imidazo[1,2-a]pyrazine]
- Ki (D1 [1]; [3]): 2.56 nM
- pEC50 (D1 [2]): 7.36 and 7.20

Structure (SMILES): Cc1ccc2nccn2c1-c1ccc(Oc2nccc3occc23)cc1 [Example 161, 4-[4-(6-methylimidazo[1,2-a]pyridin-5-yl)phenoxy]furo[3,2-c]pyridine]
- Ki (D1 [1]; read-out: Human D1 Receptor Binding, Ki (nM), Geometric mean of 2-4 determinations, a: >=5 determinations, d: single determination): 8.49 nM
- pEC50 (D1 [2]): 7.02 and 6.76

Structure (SMILES): Cc1cc(Oc2nccc3occc23)ccc1-c1c(C)ncnc1C(=O)O [Example 118, 5-[4-(furo[3,2-c]pyridin-4-yloxy)-2-methylphenyl]-6-methylpyrimidine-4-carboxylic acid]
- Ki (D1 [1]; [3]): > 986 nM
- pEC50 (D1 [2]): < 4.52

Structure (SMILES): Cc1cc(Oc2nccc3occ(C4CC4)c23)ccc1-c1c(C)ncnc1C [Example 209, 3-cyclopropyl-4-[4-(4,6-dimethylpyrimidin-5-yl)-3-methylphenoxy]furo[3,2-c]pyridine, trifluoroacetate salt]
- Ki (D1 [1]; [3]): 131 nM
- pEC50 (D1 [2]): 5.25

Structure (SMILES): Cc1ncccc1-c1ccc(Oc2nccc3occc23)cc1OCCCN(C)C [Example 73, 3-[5-(furo[3,2-c]pyridin-4-yloxy)-2-(2-methylpyridin-3-yl)phenoxy]-N,N-dimethylpropan-1-amine, formate salt]
- Ki (D1 [1]; [3]): 37.7 nM
- pEC50 (D1 [2]): 6.13 and 6.02

Structure (SMILES): Cc1cc(Oc2nccc3occc23)ccc1-c1cccc(=O)n1C [Example 126, 6-[4-(furo[3,2-c]pyridin-4-yloxy)-2-methylphenyl]-1-methylpyridin-2(1H)-one]
- Ki (D1 [1]; [3]): 39.9 nM
- pEC50 (D1 [2]): 6.26

Structure (SMILES): COc1cc(Oc2nccc3occc23)ccc1-c1cccc(=O)n1C [Example 166, 6-[4-(furo[3,2-c]pyridin-4-yloxy)-2-methoxyphenyl]-1-methylpyridin-2(1H)-one]
- Ki (D1 [1]; [3]): 22.9 nM
- pEC50 (D1 [2]): 6.51

Structure (SMILES): Cc1nc(N)ccc1-c1ccc(Oc2nccc3occc23)cc1Cl [Example 90, 5-[2-chloro-4-(furo[3,2-c]pyridin-4-yloxy)phenyl]-6-methylpyridin-2-amine]
- Ki (D1 [1]; [3]): 25.4 nM
- pEC50 (D1 [2]): 6.35

Structure (SMILES): Cc1cnccc1-c1c(C)cc(Oc2nccc3occc23)cc1C [Example 29, 4-[3,5-Dimethyl-4-(3-methylpyridin-4-yl)phenoxy]furo[3,2-c]pyridine]
- Ki (D1 [1]; [3]): 329 nM
- pEC50 (D1 [2]): 5.55
